What was measured:
[1] = tested on: T47D cells; experiment: Cellular growth inhibition assay for T47D cells, CellTiter-Glo; type: cell-based, human; conditions: Homo sapiens, T47D, 72 h, 72 hours treatment, CellTiter-Glo 2.0 cell viability
Summary of the method: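 Cells are plated at 3000/well and allowed 24 h before treatment. Test compound in medium containing 0.5% DMSO is then added, with DMSO-only wells as negative control, and plates are incubated 72 h at 37 °C. ATP luminescence (CellTiter-Glo 2.0) is then fitted to four parameters to derive GI50.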

[2] = tested on: VCaP cells; experiment: Cellular growth inhibition assay for VCaP cells, CellTiter-Glo; type: cell-based, human; conditions: Homo sapiens, VCaP, 72 h, 72 hours treatment, CellTiter-Glo 2.0
Summary of the method: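 GI50 values come from four-parameter curve fits of luminescence data normalized to a zero baseline. Compound, in medium with 0.5% DMSO, was added one day after plating and left for 72 h before CellTiter-Glo 2.0 addition.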

[3] = tested on: T-Rex 293 cell line SC3 cells having increased expression of androgen receptor protein due to exposure to doxycycline; experiment: Cellular growth inhibition, T-Rex 293 SC3 cells with doxycycline (androgen receptor induced), CellTiter-Glo; type: cell-based; conditions: 72 h, T-Rex 293 SC3 cells with 10 ng/mL doxycycline (increased androgen receptor expression)
Summary of the method: (§1)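 With DMSO (0.5%) vehicle as negative control, compounds treated SC3 cells for 72 h in medium containing charcoal-dextran FBS ± doxycycline. This T-Rex 293 clone expresses transfected wild-type AR on induction. Readout: CellTiter-Glo 2.0; GI50 by nonlinear regression.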

[4] = tested on: T-Rex 293 cell line SC3 cells lacking increased expression of androgen receptor protein; experiment: Cellular growth inhibition, T-Rex 293 SC3 cells without doxycycline, CellTiter-Glo; type: cell-based; conditions: 72 h, T-Rex 293 SC3 cells not exposed to doxycycline, CellTiter-Glo 2.0
Summary of the method: as §1

SMILES | GI50 [1] | GI50 [2] | GI50 [3] | GI50 [4]
Cc1sc2c(c1C)C(c1ccc(OCCOC3CCN(c4ncc(C(=O)N[C@H]5C(C)(C)[C@H](Oc6ccc(C#N)c(Cl)c6)C5(C)C)cn4)CC3)cc1)=N[C@@H](CC(=O)NC1CC1)c1nnc(C)n1-2 [Compound I-67] | 0.5 to 1.5 µM | < 0.5 µM | < 0.5 µM | < 0.5 µM
CCNC(=O)C[C@@H]1N=C(c2ccc(OCCC3CCN(c4ncc(C(=O)N[C@H]5C(C)(C)[C@H](Oc6ccc(C#N)c(Cl)c6)C5(C)C)cn4)CC3)cc2)c2c(sc(C)c2C)-n2c(C)nnc21 [Compound I-69] | 0.5 to 1.5 µM | < 0.5 µM | < 0.5 µM | < 0.5 µM
CCNC(=O)C[C@@H]1N=C(c2ccc(OCCN3CCN(c4ncc(C(=O)N[C@H]5C(C)(C)[C@H](Oc6ccc(C#N)c(Cl)c6)C5(C)C)cn4)CC3)cc2)c2c(sc(C)c2C)-n2c(C)nnc21 [Compound I-70] | 0.5 to 1.5 µM | < 0.5 µM | < 0.5 µM | 0.5 to 1.5 µM
CCNC(=O)C[C@@H]1N=C(c2ccc(OC3CC(OC4CCN(c5ncc(C(=O)N[C@H]6C(C)(C)[C@H](Oc7ccc(C#N)c(Cl)c7)C6(C)C)cn5)CC4)C3)cc2)c2c(sc(C)c2C)-n2c(C)nnc21 (stereo partly drawn) [Compound I-72] | < 0.5 µM | < 0.5 µM | < 0.5 µM | 0.5 to 1.5 µM
CCNC(=O)C[C@@H]1N=C(c2ccc(OC3CN(CC4CCN(c5ncc(C(=O)N[C@H]6C(C)(C)[C@H](Oc7ccc(C#N)c(Cl)c7)C6(C)C)cn5)CC4)C3)cc2)c2c(sc(C)c2C)-n2c(C)nnc21 [Compound I-79] | < 0.5 µM | < 0.5 µM | < 0.5 µM | 0.5 to 1.5 µM
CCNC(=O)C[C@@H]1N=C(c2ccc(OCCN(C)c3ncc(C(=O)N[C@H]4C(C)(C)[C@H](Oc5ccc(C#N)c(Cl)c5)C4(C)C)cn3)cc2)c2c(sc(C)c2C)-n2c(C)nnc21 [Compound I-80] | 0.5 to 1.5 µM | < 0.5 µM | < 0.5 µM | 0.5 to 1.5 µM
CCNC(=O)C[C@@H]1N=C(c2ccc(OC3CC(N(C)C4CCN(c5ncc(C(=O)N[C@H]6C(C)(C)[C@H](Oc7ccc(C#N)c(Cl)c7)C6(C)C)cn5)CC4)C3)cc2)c2c(sc(C)c2C)-n2c(C)nnc21 (stereo partly drawn) [Compound I-82] | < 0.5 µM | 0.5 to 1.5 µM | < 0.5 µM | 0.5 to 1.5 µM
CCNC(=O)C[C@@H]1N=C(c2ccc(CCCOC3CCN(c4ncc(C(=O)N[C@H]5C(C)(C)[C@H](Oc6ccc(C#N)c(Cl)c6)C5(C)C)cn4)CC3)cc2)c2c(sc(C)c2C)-n2c(C)nnc21 [Compound I-87, N-[3-(3-chloro-4-cyano-phenoxy)-2,2,4,4-tetramethyl-cyclobutyl]-2-[4-[3-[4-[(9S)-9-[2-(ethylamino)-2-oxo-ethyl]-4,5,13-trimethyl-3-thia-1,8,11,12-tetrazatricyclo[8.3.0.02,6]trideca-2(6),4,7,10,12-pentaen-7-yl]phenyl]propoxy]-1-piperidyl]pyrimidine-5-carboxamide] | < 0.5 µM | < 0.5 µM | < 0.5 µM | < 0.5 µM
CCNC(=O)C[C@@H]1N=C(c2ccc(CCC3CN(c4ncc(C(=O)N[C@H]5C(C)(C)[C@H](Oc6ccc(C#N)c(Cl)c6)C5(C)C)cn4)C3)cc2)c2c(sc(C)c2C)-n2c(C)nnc21 [Compound I-93] | 0.5 to 1.5 µM | < 0.5 µM | < 0.5 µM | 0.5 to 1.5 µM
CCNC(=O)C[C@@H]1N=C(c2ccc(CN3CC4CN(c5ncc(C(=O)N[C@H]6C(C)(C)[C@H](Cc7ccc(C#N)c(Cl)c7)C6(C)C)cn5)CC4C3)cc2)c2c(sc(C)c2C)-n2c(C)nnc21 (stereo partly drawn) [Compound I-94] | 0.5 to 1.5 µM | < 0.5 µM | < 0.5 µM | 0.5 to 1.5 µM
CCNC(=O)C[C@@H]1N=C(c2ccc(CCCN3CCN(c4ncc(C(=O)N[C@H]5C(C)(C)[C@H](Oc6ccc(C#N)c(Cl)c6)C5(C)C)cn4)CC3)cc2)c2c(sc(C)c2C)-n2c(C)nnc21 [Compound I-99] | < 0.5 µM | 0.5 to 1.5 µM | < 0.5 µM | 0.5 to 1.5 µM
CCNC(=O)C[C@@H]1N=C(c2ccc(CCN(C)c3ncc(C(=O)N[C@H]4C(C)(C)[C@H](Oc5ccc(C#N)c(Cl)c5)C4(C)C)cn3)cc2)c2c(sc(C)c2C)-n2c(C)nnc21 [Compound I-103] | 0.5 to 1.5 µM | 0.5 to 1.5 µM | < 0.5 µM | 0.5 to 1.5 µM
CCNC(=O)C[C@@H]1N=C(c2ccc(N3CCC(CN4CCN(c5ncc(C(=O)N[C@H]6C(C)(C)[C@H](Oc7ccc(C#N)c(Cl)c7)C6(C)C)cn5)CC4)CC3)cc2)c2c(sc(C)c2C)-n2c(C)nnc21 [Compound I-109] | < 0.5 µM | < 0.5 µM | < 0.5 µM | 0.5 to 1.5 µM
CCNC(=O)C[C@@H]1N=C(c2ccc(N(C)CCC3CCN(c4ncc(C(=O)N[C@H]5C(C)(C)[C@H](Oc6ccc(C#N)c(Cl)c6)C5(C)C)cn4)CC3)cc2)c2c(sc(C)c2C)-n2c(C)nnc21 [Compound I-110] | < 0.5 µM | < 0.5 µM | < 0.5 µM | < 0.5 µM
CCNC(=O)C[C@@H]1N=C(c2ccc(N3CC(OC4CCN(c5ncc(C(=O)N[C@H]6C(C)(C)[C@H](Oc7ccc(C#N)c(Cl)c7)C6(C)C)cn5)CC4)C3)cc2)c2c(sc(C)c2C)-n2c(C)nnc21 [Compound I-117] | < 0.5 µM | < 0.5 µM | < 0.5 µM | 0.5 to 1.5 µM
CCNC(=O)C[C@@H]1N=C(c2ccc(N3CCC(OC4CN(c5ncc(C(=O)N[C@H]6C(C)(C)[C@H](Oc7ccc(C#N)c(Cl)c7)C6(C)C)cn5)C4)CC3)cc2)c2c(sc(C)c2C)-n2c(C)nnc21 [Compound I-118] | < 0.5 µM | < 0.5 µM | < 0.5 µM | 0.5 to 1.5 µM
CCNC(=O)C[C@@H]1N=C(c2ccc(N3CC(N(C)C4CCN(c5ncc(C(=O)N[C@H]6C(C)(C)[C@H](Oc7ccc(C#N)c(Cl)c7)C6(C)C)cn5)CC4)C3)cc2)c2c(sc(C)c2C)-n2c(C)nnc21 [Compound I-122] | < 0.5 µM | < 0.5 µM | < 0.5 µM | 0.5 to 1.5 µM
CCNC(=O)C[C@@H]1N=C(c2ccc(N3CC(N(C(C)C)C4CN(c5ncc(C(=O)N[C@H]6C(C)(C)[C@H](Oc7ccc(C#N)c(Cl)c7)C6(C)C)cn5)C4)C3)cc2)c2c(sc(C)c2C)-n2c(C)nnc21 [Compound I-125] | 0.5 to 1.5 µM | < 0.5 µM | < 0.5 µM | 0.5 to 1.5 µM
CCNC(=O)C[C@@H]1N=C(c2ccc(N3CCC(OC4CCN(c5ncc(C(=O)N[C@H]6C(C)(C)[C@H](Oc7ccc(C#N)c(Cl)c7)C6(C)C)cn5)CC4)C3)cc2)c2c(sc(C)c2C)-n2c(C)nnc21 (stereo partly drawn) [Compound I-126] | < 0.5 µM | 0.5 to 1.5 µM | < 0.5 µM | 0.5 to 1.5 µM
CCNC(=O)C[C@@H]1N=C(c2ccc(N3CC(CC4CN(c5ncc(C(=O)N[C@H]6C(C)(C)[C@H](Oc7ccc(C#N)c(Cl)c7)C6(C)C)cn5)C4)C3)cc2)c2c(sc(C)c2C)-n2c(C)nnc21 [Compound I-127] | < 0.5 µM | < 0.5 µM | < 0.5 µM | 0.5 to 1.5 µM
CCNC(=O)C[C@@H]1N=C(c2ccc(N3CCC(CN4CC(N(C)c5ncc(C(=O)N[C@H]6C(C)(C)[C@H](Oc7ccc(C#N)c(Cl)c7)C6(C)C)cn5)C4)CC3)cc2)c2c(sc(C)c2C)-n2c(C)nnc21 [Compound I-128] | 1.5 to 3 µM | 1.5 to 3 µM | > 3 µM | > 3 µM
Cc1sc2c(c1C)C(c1ccc(CCC3CCN(c4ncc(C(=O)N[C@H]5C(C)(C)[C@H](Oc6ccc(C#N)c(Cl)c6)C5(C)C)cn4)CC3)cc1)=N[C@@H](Cc1ncco1)c1nnc(C)n1-2 [Compound I-132] | < 0.5 µM | < 0.5 µM | < 0.5 µM | > 3 µM
Cc1sc2c(c1C)C(c1ccc(CCCC3CCN(c4ncc(C(=O)N[C@H]5C(C)(C)[C@H](Oc6ccc(C#N)c(Cl)c6)C5(C)C)cn4)CC3)cc1)=NC(Cc1ncco1)c1nnc(C)n1-2 (stereo partly drawn) [Compound I-133] | < 0.5 µM | < 0.5 µM | < 0.5 µM | 0.5 to 1.5 µM
Cc1sc2c(c1C)C(c1ccc(CCCCC3CCN(c4ncc(C(=O)N[C@H]5C(C)(C)[C@H](Oc6ccc(C#N)c(Cl)c6)C5(C)C)cn4)CC3)cc1)=NC(Cc1ncco1)c1nnc(C)n1-2 (stereo partly drawn) [Compound I-135] | < 0.5 µM | < 0.5 µM | < 0.5 µM | > 3 µM
Cc1sc2c(c1C)C(c1ccc(CN3CCC4(CCCN(c5ncc(C(=O)N[C@H]6C(C)(C)[C@H](Oc7ccc(C#N)c(Cl)c7)C6(C)C)cn5)C4)C3)cc1)=NC(Cc1ncco1)c1nnc(C)n1-2 (stereo partly drawn) [Compound I-137] | < 0.5 µM | < 0.5 µM | < 0.5 µM | 0.5 to 1.5 µM
Cc1sc2c(c1C)C(c1ccc(CN3CC4(CCCN(c5ncc(C(=O)N[C@H]6C(C)(C)[C@H](Oc7ccc(C#N)c(Cl)c7)C6(C)C)cn5)C4)C3)cc1)=NC(Cc1ncco1)c1nnc(C)n1-2 (stereo partly drawn) [Compound I-138] | 0.5 to 1.5 µM | < 0.5 µM | < 0.5 µM | 1.5 to 3 µM
Cc1sc2c(c1C)C(c1ccc(CN3CC4(C3)CN(c3ncc(C(=O)N[C@H]5C(C)(C)[C@H](Oc6ccc(C#N)c(Cl)c6)C5(C)C)cn3)CCO4)cc1)=NC(Cc1ncco1)c1nnc(C)n1-2 (stereo partly drawn) [Compound I-139] | < 0.5 µM | < 0.5 µM | < 0.5 µM | < 0.5 µM
